From patent US12502362B2, “Inhibitors of nucleotidyltransferase superfamily enzymes as antibiotics” (priority 2017, dated 2025)
Values after ≈ are worked out from the molar mass of the structure shown.

What was measured:
[1] = tested on: S. aureus (ATCC 29213); assay: MIC80 on S. aureus; type: cell-based, Staphylococcus aureus; settings: Staphylococcus aureus, ATCC 29213 / MSSA, read-out: MIC80 S. aureus, S. aureus ATCC 29213 (MSSA); ≥80% growth inhibition
[2] = tested on: Staphylococcus epidermidis; assay: MIC80 on S. epidermidis; type: cell-based
Description: (§1) To further characterize the compounds, the minimal inhibitory concentration (MIC80) were determined for selected compounds. MIC80 is defined as the compound concentration at which ≥80% bacterial growth is inhibited compare to untreated controls. Meanwhile, for the selected compounds, cytotoxicity assays (CC50) were performed on a HepG2-derived hepatoblastoma cell line (HEPDES19). […] For the MIC80 measurements, a 1.5 fold dilution series of the compounds was prepared in Mueller-Hinton II broth. […] For CC50 evaluation, soluble tetrazolium dye (MTS) was used to measure mitochondrial toxicity in a human hepatoblastoma cell line (18). The bacteria (E. coli, S. saprophyticus and A. baumannii) used in MIC80 measurements were the same as that in the primary screening, but for Staphylococcus, S. aureus is used primarily because it is a common pathogen in Staphylococcaeae family, while S. saprophyticus is part of the normal human flora. S. aureus (ATCC 29213) is methicillin-sensitive Staphylococcus aureus (MSSA) strain and it was used as a model strain to measure the MIC80.
(§2) It was also tested whether compounds #63 and #285 can inhibit other coagulase-negative Staphylococcus (CNS) including S. epidermidis, S. hominis, etc. […] .

[3] = Cytotoxicity assay (CC50), MTS; type: cell-based, human; settings: human, HepG2-derived hepatoblastoma cell line (HEPDES19), HEPDES19 cells
Description: (§3) To further characterize the compounds, the minimal inhibitory concentration (MIC80) were determined for selected compounds. MIC80 is defined as the compound concentration at which ≥80% bacterial growth is inhibited compare to untreated controls. Meanwhile, for the selected compounds, cytotoxicity assays (CC50) were performed on a HepG2-derived hepatoblastoma cell line (HEPDES19). […] For CC50 evaluation, soluble tetrazolium dye (MTS) was used to measure mitochondrial toxicity in a human hepatoblastoma cell line (18). The bacteria (E. coli, S. saprophyticus and A. baumannii) used in MIC80 measurements were the same as that in the primary screening, but for Staphylococcus, S. aureus is used primarily because it is a common pathogen in Staphylococcaeae family, while S. saprophyticus is part of the normal human flora.

[4] = tested on: HepG2-derived hepatoblastoma cell line (HEPDES19); assay: Cytotoxicity assay (CC50), MTS; type: cell-based, human; settings: HEPDES19 cells
Description: as §3

[5] = tested on: Coagulase negative Staphylococcus; assay: MIC80 on coagulase negative Staphylococcus; type: cell-based
Description: as §1, §2

[6] = tested on: S. aureus ATCC strains and methicillin-resistant Staphylococcus aureus (MRSA); assay: MIC80 on S. aureus ATCC strains and MRSA; type: cell-based
Description: as §3

[7] = tested on: E. coli (ATCC 35218); assay: microbe, parasite or virus in culture; type: cell-based; settings: for MIC80: Escherichia coli, ATCC35218, read-out: MIC80 E. coli, E. coli ATCC 35218; for MIC80 E. coli: E. coli ATCC 35218
[8] = tested on: Acinetobacter baumannii (Abl, from a patient); assay: microbe, parasite or virus in culture; type: cell-based; settings: for MIC80: Acinetobacter baumannii, read-out: MIC80 A. baumannii, A. baumannii Ab1, MDR patient isolate
[9] = tested on: Staphylococcus saprophyticus (ATCC BAA-750); assay: MIC80 on S. saprophyticus; type: cell-based; settings: Staphylococcus saprophyticus, ATCCBAA750; S. saprophyticus ATCC BAA-750; read-out: MIC80 S. sapro
Description: as §3

[10] = tested on: Staphylococcus hominis; assay: MIC80 on S. hominis; type: cell-based
Description: as §1, §2

[11] = tested on: S. aureus and/or S. saprophyticus; assay: MIC80 on S. aureus and/or S. saprophyticus; type: cell-based; settings: read-out: MIC80 against S. aureus and/or S. saprophyticus
Description: as §1

[12] = tested on: MDR Enterobacteriaceae; assay: microbe, parasite or virus in culture; type: cell-based
Description: as §3
(§4) All these MDR-bacteria are at least resistant to two classes of the antibiotics among five groups and/or specific antibiotics including quinolones/fluorquinolones, carbapenems, cephalosporins, aminoglycosides and piperacillin-tazobactam.

[13] = tested on: MDR E. coli; assay: microbe, parasite or virus in culture; type: cell-based
Description: as §3, §4

[14] = tested on: Klebsiella pneumoniae; assay: microbe, parasite or virus in culture; type: cell-based
Description: as §3, §4

[15] = tested on: Citrobacter koseri; assay: microbe, parasite or virus in culture; type: cell-based
Description: as §3, §4

[16] = tested on: Morganella morganii; assay: microbe, parasite or virus in culture; type: cell-based
Description: as §3, §4

[17] = tested on: Enterobacter cloacae complex; assay: microbe, parasite or virus in culture; type: cell-based
Description: as §3, §4

## O=C(Oc1cccccc1=O)c1ccc(Cl)cc1 [Compound 63]
[1]
  MIC80: 16.5 µM (≈ 4.3 µg/mL)
[2]; Se1 (Staphylococcus epidermidis)
  MIC80: 8.8 µM (≈ 2.29 µg/mL)
[2]; Se2 (Staphylococcus epidermidis)
  MIC80: 8.8 µM (≈ 2.29 µg/mL)
[2]; Se3 (Staphylococcus epidermidis)
  MIC80: 8.8 µM (≈ 2.29 µg/mL)
[2]; Se4 (Staphylococcus epidermidis)
  MIC80: 8.8 µM (≈ 2.29 µg/mL)
[2]; Se5 (Staphylococcus epidermidis)
  MIC80: 8.8 µM (≈ 2.29 µg/mL)
[3]
  CC50: > 50 µM
[4]
  CC50: ≥ 100 µM
[5]; CNS1 (Coagulase negative Staphylococcus)
  MIC80: 13.2 µM (≈ 3.44 µg/mL)
[5]; CNS2 (Coagulase negative Staphylococcus)
  MIC80: 5.9 µM (≈ 1.54 µg/mL)
[6]; ATCC 25923 / MRSA, S. aureus ATCC 25923
  MIC80: 8.8 µM (≈ 2.29 µg/mL)
[6]; ATCC 29213 / MRSA, S. aureus ATCC 29213 (Table 3)
  MIC80: 8.8 µM (≈ 2.29 µg/mL)
[6]; BAA-976 / MRSA, S. aureus ATCC BAA 976
  MIC80: 13.2 µM (≈ 3.44 µg/mL)
[6]; BAA-977 / MRSA, S. aureus ATCC BAA 977
  MIC80: 8.8 µM (≈ 2.29 µg/mL)
[6]; MRSA, Sa1 (MRSA)
  MIC80: 8.8 µM (≈ 2.29 µg/mL)
[6]; MRSA, Sa2 (MRSA)
  MIC80: 8.8 µM (≈ 2.29 µg/mL)
[6]; MRSA, Sa3 (MRSA)
  MIC80: 8.8 µM (≈ 2.29 µg/mL)
[6]; MRSA, Sa5 (MRSA)
  MIC80: 8.8 µM (≈ 2.29 µg/mL)
[6]; MRSA, Sa6 (MRSA)
  MIC80: 8.8 µM (≈ 2.29 µg/mL)
[6]; MRSA, Sa7 (MRSA)
  MIC80: 8.8 µM (≈ 2.29 µg/mL)
[6]; MRSA, Sa8 (MRSA)
  MIC80: 8.8 µM (≈ 2.29 µg/mL)
[6]; MRSA, Sa9 (MRSA)
  MIC80: 8.8 µM (≈ 2.29 µg/mL)
[6]; MRSA, Sa10 (MRSA)
  MIC80: 8.8 µM (≈ 2.29 µg/mL)
[6]; MRSA, Sa11 (MRSA)
  MIC80: 8.8 µM (≈ 2.29 µg/mL)
[6]; MRSA, Sa12 (MRSA)
  MIC80: 8.8 µM (≈ 2.29 µg/mL)
[6]; MRSA, Sa14 (MRSA)
  MIC80: 8.8 µM (≈ 2.29 µg/mL)
[6]; MRSA, Sa15 (MRSA)
  MIC80: 8.8 µM (≈ 2.29 µg/mL)
[6]; MRSA, Sa16 (MRSA)
  MIC80: 8.8 µM (≈ 2.29 µg/mL)
[6]; MRSA, Sa17 (MRSA)
  MIC80: 8.8 µM (≈ 2.29 µg/mL)
[6]; MRSA, Sa18 (MRSA)
  MIC80: 8.8 µM (≈ 2.29 µg/mL)
[6]; MRSA, Sa19 (MRSA)
  MIC80: 8.8 µM (≈ 2.29 µg/mL)
[6]; MRSA, Sa20 (MRSA)
  MIC80: 8.8 µM (≈ 2.29 µg/mL)
[6]; MRSA, Sa21 (MRSA)
  MIC80: 8.8 µM (≈ 2.29 µg/mL)
[6]; MRSA, Sa22 (MRSA)
  MIC80: 8.8 µM (≈ 2.29 µg/mL)
[6]; MRSA, Sa23 (MRSA)
  MIC80: 8.8 µM (≈ 2.29 µg/mL)
[7]
  MIC80: 111 µM (≈ 29 µg/mL)
[8]
  MIC80: 83.4 µM (≈ 21.7 µg/mL)
[9]
  MIC80: 9.2 µM (≈ 2.4 µg/mL)
[10]; Sh1 (Staphylococcus hominis)
  MIC80: 8.8 µM (≈ 2.29 µg/mL)
[10]; Sh2 (Staphylococcus hominis)
  MIC80: 13.2 µM (≈ 3.44 µg/mL)
[10]; Sh3 (Staphylococcus hominis)
  MIC80: 8.8 µM (≈ 2.29 µg/mL)
[11]
  MIC80: < 20 µM

## Cc1ccc(C(=O)Sc2cccccc2=O)cc1 [Compound 284]
[1]
  MIC80: 15 µM (≈ 3.84 µg/mL)
[3]
  CC50: > 50 µM
[7]
  MIC80 E. coli: 24.1 µM (≈ 6.18 µg/mL)
  MIC80: < 30 µM
[8]
  MIC80: 55.6 µM (≈ 14.3 µg/mL)
[9]
  MIC80: 44.4 µM (≈ 11.4 µg/mL)
[12]; Escherichia coli, read-out: MIC80 on MDR Enterobacteriaceae
  MIC80: ≤ 20 µM
[13]; Escherichia coli, Ec1 (MDR E. coli)
  MIC80: 5.9 µM (≈ 1.51 µg/mL)
[13]; Escherichia coli, Ec2 (MDR E. coli)
  MIC80: 3.9 µM (≈ 1 µg/mL)
[13]; Escherichia coli, Ec3 (MDR E. coli)
  MIC80: 5.9 µM (≈ 1.51 µg/mL)
[13]; Escherichia coli, Ec4 (MDR E. coli)
  MIC80: 8.8 µM (≈ 2.26 µg/mL)
[13]; Escherichia coli, Ec5 (MDR E. coli)
  MIC80: 29.6 µM (≈ 7.59 µg/mL)
[14]; Klebsiella pneumoniae, Kp1 (Klebsiella pneumonia)
  MIC80: 5.9 µM (≈ 1.51 µg/mL)
[14]; Klebsiella pneumoniae, Kp6 (Klebsiella pneumonia)
  MIC80: 29.6 µM (≈ 7.59 µg/mL)
[15]; Citrobacter koseri
  MIC80: 8.8 µM (≈ 2.26 µg/mL)
[16]; Morganella morganii
  MIC80: 19.8 µM (≈ 5.08 µg/mL)
[17]; Enterobacter cloacae
  MIC80: 8.8 µM (≈ 2.26 µg/mL)
[11]
  MIC80: < 20 µM

## CCn1cc(C(=O)O)c(=O)c2cnc(N3CCN(C(=O)NC)CC3)nc21 [Compound 322]
[4]
  CC50: ≥ 100 µM
[7]
  inhibition of E. coli (in words): only modestly inhibited
  MIC80 E. coli: 29.6 µM (≈ 10.7 µg/mL)
[8]; A. baumannii Ab1, MDR patient isolate
  MIC80 A. baumannii: >100 µM
[12]; except one MDR E. coli and one Enterobacter cloacae complex strain
  inhibition of MDR Enterobacteriaceae (in words): No obvious inhibition
[13]; Ec1 (MDR E. coli)
  MIC80: >100 µM
[13]; Ec2 (MDR E. coli)
  MIC80: 66.7 µM (≈ 24 µg/mL)
[13]; Ec3 (MDR E. coli)
  MIC80: >100 µM
[13]; Ec4 (MDR E. coli)
  MIC80: >100 µM
[13]; Ec5 (MDR E. coli)
  MIC80: >100 µM
[13]; one MDR E. coli
  MIC80: 44.4 µM (≈ 16 µg/mL)
[14]; Kp1 (Klebsiella pneumonia)
  MIC80: >100 µM
[14]; Kp6 (Klebsiella pneumonia)
  MIC80: >100 µM
[15]; Ck1 (Citrobacter koseri)
  MIC80: >100 µM
[16]; Mm1 (Morganella morganii)
  MIC80: >100 µM
[17]; Ecc1 (Enterobacter cloacae complex)
  MIC80: 44.4 µM (≈ 16 µg/mL)
[17]; one Enterobacter cloacae complex strain
  MIC80: 66.7 µM (≈ 24 µg/mL)
